According to paper PMC10447267, “Assessment of the potential of the MET inhibitor tepotinib to affect the pharmacokinetics of CYP3A4 and P-gp substrates” (Investigational New Drugs, 2023):
Read-outs that look alike come from different tables or passages of the source.

Legend:
CYP1A2 = target: T1, CYP1A2 (Homo sapiens, UniProt P05177); experiment: CYP1A2 inhibition in pooled human liver microsomes; assay type: in vitro ADME; settings: for inhibition at 49.5 µM: both sexes, human, microsomes
T1 construct: pooled mixed-gender human liver microsomes; from tissue; host or cells: pooled mixed-gender human liver microsomes
T1 sequence (P05177 1-516): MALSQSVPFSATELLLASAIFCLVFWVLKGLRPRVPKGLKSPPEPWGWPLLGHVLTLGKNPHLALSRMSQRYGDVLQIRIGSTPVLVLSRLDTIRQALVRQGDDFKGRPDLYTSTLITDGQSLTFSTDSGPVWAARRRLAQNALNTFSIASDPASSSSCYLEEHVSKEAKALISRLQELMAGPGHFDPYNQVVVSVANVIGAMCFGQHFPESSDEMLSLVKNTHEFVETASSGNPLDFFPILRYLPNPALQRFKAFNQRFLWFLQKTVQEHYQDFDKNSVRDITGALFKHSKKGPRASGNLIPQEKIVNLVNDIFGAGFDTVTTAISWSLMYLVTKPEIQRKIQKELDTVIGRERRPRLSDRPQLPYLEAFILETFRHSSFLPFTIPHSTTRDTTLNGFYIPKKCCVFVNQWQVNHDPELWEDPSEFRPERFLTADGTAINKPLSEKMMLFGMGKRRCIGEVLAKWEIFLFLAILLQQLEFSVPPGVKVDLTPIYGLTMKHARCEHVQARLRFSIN
Experimental: (§1) The potential of tepotinib and MSC2571109A to inhibit CYP450 enzymes CYP1A2, 2A6, 2B6, 2C8, 2C9, 2C19, 2D6, 2E1, and 3A4/5 in vitro was evaluated using CYP-catalyzed reactions in pooled mixed-gender human liver microsomes using specific substrates and liquid chromatography/tandem mass spectrometry (LC–MS/MS) readouts. […] Testosterone 6β-hydroxylation was assessed in the MSC2571109A study. Assessments of mechanism-based inhibition of the above listed CYP450 enzymes were conducted after pre-incubation of the microsomes with tepotinib or MSC2571109A. A brief summary of the incubation methods, including details of substrates used for the other CYP enzymes (which are not pertinent to this article) are presented in Online Resource 1. The LC–MS/MS-based methods used were consistent with those previously described in the literature.

CYP2A6 = target: T2, CYP2A6 (Homo sapiens, UniProt P11509); experiment: CYP2A6 inhibition in pooled human liver microsomes; assay type: in vitro ADME; settings: Coumarin 7-hydroxylation; for inhibition at 49.5 µM: both sexes, human, pooled human liver microsomes, probe coumarin
T2 construct: pooled mixed-gender human liver microsomes; from tissue; host or cells: pooled mixed-gender human liver microsomes
T2 sequence (P11509 1-494): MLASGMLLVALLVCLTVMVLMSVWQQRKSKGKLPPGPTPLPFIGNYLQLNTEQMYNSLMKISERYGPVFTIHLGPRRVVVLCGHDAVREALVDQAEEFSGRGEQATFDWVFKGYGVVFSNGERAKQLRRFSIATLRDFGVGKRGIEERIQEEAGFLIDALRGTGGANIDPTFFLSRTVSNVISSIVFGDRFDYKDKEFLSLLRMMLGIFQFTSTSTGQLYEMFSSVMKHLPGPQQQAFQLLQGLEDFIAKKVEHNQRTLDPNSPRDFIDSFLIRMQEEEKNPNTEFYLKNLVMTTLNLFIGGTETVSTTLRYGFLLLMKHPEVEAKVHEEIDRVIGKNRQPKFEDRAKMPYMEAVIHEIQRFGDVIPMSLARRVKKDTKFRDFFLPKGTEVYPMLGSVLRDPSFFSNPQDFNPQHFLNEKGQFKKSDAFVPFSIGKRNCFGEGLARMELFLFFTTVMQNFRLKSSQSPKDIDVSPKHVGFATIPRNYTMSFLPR
Experimental: as §1

CYP2C9 = target: T3, CYP2C9 (Homo sapiens, UniProt P11712); experiment: CYP2C9 inhibition in pooled human liver microsomes; assay type: in vitro ADME; settings: for inhibition at 49.5 µM: both sexes, human, pooled human liver microsomes, probe diclofenac
T3 construct: pooled mixed-gender human liver microsomes; from tissue; host or cells: pooled mixed-gender human liver microsomes
Experimental: as §1

CYP2D6 = target: T4, CYP2D6 (Homo sapiens, UniProt P10635); experiment: biochemical; assay type: in vitro ADME; settings: for inhibition at 49.5 µM: both sexes, human, microsomes
T4 construct: pooled mixed-gender human liver microsomes; from tissue; host or cells: pooled mixed-gender human liver microsomes
Experimental: as §1

CYP2E1 = target: T5, CYP2E1 (Homo sapiens, UniProt P05181); experiment: biochemical; assay type: in vitro ADME; settings: for inhibition at 49.5 µM: both sexes, human, microsomes
T5 construct: pooled mixed-gender human liver microsomes; from tissue; host or cells: pooled mixed-gender human liver microsomes
Experimental: as §1

CYP1A1/2 = CYP1A1/2 activity induction in primary human hepatocyte cultures; assay type: in vitro ADME; settings: enzyme activity quantification
Experimental: (§2) In vitro studies in primary human hepatocyte cultures were conducted to assess the potential of tepotinib to induce human CYP1A1/2, 2B6 and 3A4/5 activity, the latter based on testosterone 6β-hydroxylation reactions (Online Resource 2). […] The studies included positive (rifampin) and vehicle (DMSO) controls. A negative control (flumazenil) was also included in the mRNA studies. The study designs, test systems and selection of prototypical inducers used in these studies were consistent with PhRMA, FDA and EMA guidelines.

CYP3A4/5 = assay type: in vitro ADME, human
Experimental: as §2

CYP3A4 mRNA = CYP3A4 mRNA induction in human hepatocyte cultures; assay type: in vitro ADME
Experimental: as §2

P-gp = P-gp (Homo sapiens, UniProt P08183); experiment: Study 2 (NCT03492437): effect of tepotinib on dabigatran pharmacokinetics in healthy participants; assay type: in vivo; settings: clinical; tepotinib 500 mg QD
Experimental: Study 1 (NCT03628339) and Study 2 (NCT03492437) were both Phase 1, open-label, single sequence, 2-period studies in 12 and 20 healthy participants, respectively (Fig. 1).
In Period 2 (Days 4 to 14), participants received 500 mg tepotinib QD on Days 4 to 11. […] Blood samples for trough concentrations of tepotinib were collected on Days 9 and 10. Further blood samples for tepotinib and its metabolites were also collected up to 24 h postdose on Day 10.
Parameters included maximum plasma concentration (Cmax) and time to reach Cmax (Tmax) taken directly from the observed data. Area under the plasma concentration–time curve (AUC) from time 0 to the last measured concentration (AUC0-t), AUC over the dose interval (AUCtau) and AUC extrapolated to infinity (AUC0-∞) were calculated using the mixed log/linear trapezoidal rule. Terminal elimination half-life (t1/2) was calculated as ln(2)/λz where λz is the terminal rate constant. The primary pharmacokinetic parameters in both studies were Cmax, AUC0-t and AUC0-∞.
A similar statistical approach was taken for both studies. […] Point estimates and CIs were back-transformed to the original scale.

[1] = substance not given, taken as tepotinib; ref the healthcare business of Merck KGaA, Darmstadt, Germany, data on file; cited from earlier work

T5 sequence (P05181 whole entry): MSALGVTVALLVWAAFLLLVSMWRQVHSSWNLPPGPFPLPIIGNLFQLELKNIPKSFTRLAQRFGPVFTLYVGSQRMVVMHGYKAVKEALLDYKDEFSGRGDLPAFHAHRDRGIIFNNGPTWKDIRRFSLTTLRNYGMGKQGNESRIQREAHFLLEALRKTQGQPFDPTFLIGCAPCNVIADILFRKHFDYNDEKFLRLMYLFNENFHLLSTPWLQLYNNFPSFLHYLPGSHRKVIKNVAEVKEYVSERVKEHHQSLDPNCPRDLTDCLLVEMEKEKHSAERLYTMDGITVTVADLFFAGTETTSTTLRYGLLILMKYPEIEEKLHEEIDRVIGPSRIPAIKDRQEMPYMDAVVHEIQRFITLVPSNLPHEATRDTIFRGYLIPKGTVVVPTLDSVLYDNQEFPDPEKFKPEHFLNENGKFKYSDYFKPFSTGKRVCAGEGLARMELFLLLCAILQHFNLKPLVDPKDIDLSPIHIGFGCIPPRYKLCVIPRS
T4 sequence (P10635 whole entry): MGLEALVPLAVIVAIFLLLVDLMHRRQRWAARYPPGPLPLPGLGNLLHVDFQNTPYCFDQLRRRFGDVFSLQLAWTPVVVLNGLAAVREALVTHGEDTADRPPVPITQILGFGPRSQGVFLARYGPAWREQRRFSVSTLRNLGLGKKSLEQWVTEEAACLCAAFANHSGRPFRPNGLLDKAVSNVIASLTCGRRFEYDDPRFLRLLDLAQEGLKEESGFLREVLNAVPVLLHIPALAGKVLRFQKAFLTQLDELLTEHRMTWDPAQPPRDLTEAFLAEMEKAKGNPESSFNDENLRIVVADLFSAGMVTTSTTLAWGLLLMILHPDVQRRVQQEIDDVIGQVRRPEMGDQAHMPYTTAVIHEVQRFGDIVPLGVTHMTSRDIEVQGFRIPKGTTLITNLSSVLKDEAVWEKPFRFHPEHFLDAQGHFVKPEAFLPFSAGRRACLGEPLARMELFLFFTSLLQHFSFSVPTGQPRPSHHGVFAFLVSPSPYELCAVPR
T3 sequence (P11712 whole entry): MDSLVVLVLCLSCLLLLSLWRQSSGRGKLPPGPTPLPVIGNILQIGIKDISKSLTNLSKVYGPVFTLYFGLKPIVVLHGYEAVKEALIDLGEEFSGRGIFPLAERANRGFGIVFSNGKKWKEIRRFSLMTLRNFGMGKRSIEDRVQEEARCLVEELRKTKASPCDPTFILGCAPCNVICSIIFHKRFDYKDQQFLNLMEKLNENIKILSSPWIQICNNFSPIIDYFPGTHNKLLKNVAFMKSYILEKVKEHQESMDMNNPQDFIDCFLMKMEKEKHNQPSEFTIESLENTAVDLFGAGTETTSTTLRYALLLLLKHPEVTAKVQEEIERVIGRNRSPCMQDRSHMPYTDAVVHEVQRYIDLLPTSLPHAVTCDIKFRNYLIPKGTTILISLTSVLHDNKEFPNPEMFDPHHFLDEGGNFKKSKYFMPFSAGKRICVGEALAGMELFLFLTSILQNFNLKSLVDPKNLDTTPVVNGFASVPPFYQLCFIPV
Sequence of P-gp (P08183 whole entry): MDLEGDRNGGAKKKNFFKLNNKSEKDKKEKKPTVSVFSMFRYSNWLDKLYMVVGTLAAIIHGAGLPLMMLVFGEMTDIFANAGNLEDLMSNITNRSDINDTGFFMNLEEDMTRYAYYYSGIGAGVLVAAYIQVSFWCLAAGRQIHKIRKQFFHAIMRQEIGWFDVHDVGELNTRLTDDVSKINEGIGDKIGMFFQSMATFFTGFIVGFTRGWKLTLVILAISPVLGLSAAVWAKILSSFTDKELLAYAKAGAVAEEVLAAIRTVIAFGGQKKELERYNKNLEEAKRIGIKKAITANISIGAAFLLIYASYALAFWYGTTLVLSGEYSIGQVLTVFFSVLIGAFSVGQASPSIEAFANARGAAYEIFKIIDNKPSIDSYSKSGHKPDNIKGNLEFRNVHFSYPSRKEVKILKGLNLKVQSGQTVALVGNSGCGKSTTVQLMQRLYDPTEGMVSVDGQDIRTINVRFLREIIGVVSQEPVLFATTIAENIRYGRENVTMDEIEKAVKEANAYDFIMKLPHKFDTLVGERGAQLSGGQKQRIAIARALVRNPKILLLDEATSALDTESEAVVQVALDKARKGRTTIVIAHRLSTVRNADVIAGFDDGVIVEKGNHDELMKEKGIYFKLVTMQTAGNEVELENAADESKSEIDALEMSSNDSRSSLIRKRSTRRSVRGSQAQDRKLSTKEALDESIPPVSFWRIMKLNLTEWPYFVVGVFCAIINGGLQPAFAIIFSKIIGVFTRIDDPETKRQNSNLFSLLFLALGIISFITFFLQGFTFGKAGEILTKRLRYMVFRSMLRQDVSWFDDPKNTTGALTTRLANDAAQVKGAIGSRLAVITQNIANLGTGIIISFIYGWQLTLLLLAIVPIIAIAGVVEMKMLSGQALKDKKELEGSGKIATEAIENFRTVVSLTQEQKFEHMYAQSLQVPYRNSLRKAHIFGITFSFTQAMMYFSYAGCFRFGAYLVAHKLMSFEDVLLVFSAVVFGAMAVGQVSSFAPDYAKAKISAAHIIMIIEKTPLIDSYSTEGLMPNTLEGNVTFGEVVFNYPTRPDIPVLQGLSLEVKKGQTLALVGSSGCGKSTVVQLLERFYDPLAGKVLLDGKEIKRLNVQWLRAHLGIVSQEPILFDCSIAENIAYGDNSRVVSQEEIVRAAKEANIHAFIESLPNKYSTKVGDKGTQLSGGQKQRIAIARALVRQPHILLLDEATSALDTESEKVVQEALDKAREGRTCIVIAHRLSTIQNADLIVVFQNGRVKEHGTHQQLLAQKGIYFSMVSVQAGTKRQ

In the case of `CN1CCC(COc2cnc(-c3cccc(Cn4nc(-c5cccc(C#N)c5)ccc4=O)c3)nc2)CC1` [tepotinib], the IC50 (CYP1A2) is reported as over 49.5 µM, the “Potential for time-dependent inhibition” value (CYP1A2; Phenacetin O-dealkylation) is reported as “Little or No” and the inhibition at 49.5 µM (CYP1A2; Phenacetin O-dealkylation, 30-min preincubation, read-out: Time-dependent inhibition, maximum inhibition at 49.5 µM) is reported as 26%. The inhibition at 49.5 µM (CYP1A2; Phenacetin O-dealkylation, zero-minute preincubation, read-out: Direct inhibition, maximum inhibition at 49.5 µM) was 11%, the IC50 (CYP1A2; read-out: Time-dependent inhibition IC50, Phenacetin O-dealkylation, 30-min preincubation) was over 49.5 µM and the “Potential for time-dependent inhibition” value (CYP2A6) was “Little or No”. It also gave an IC50 (CYP2A6; 30-min preincubation, read-out: Time-dependent inhibition IC50) of 39 µM, an inhibition at 49.5 µM (CYP2A6; 30-min preincubation, read-out: Time-dependent inhibition, maximum inhibition at 49.5 µM) of 52% and an inhibition at 49.5 µM (CYP2A6; zero-minute preincubation, read-out: Direct inhibition, maximum inhibition at 49.5 µM) of 51%. The IC50 (CYP2A6; human liver microsomes, zero-minute preincubation, read-out: Direct inhibition IC50) was over 49.5 µM, the “Potential for time-dependent inhibition” value (CYP2C9; Diclofenac 4-hydroxylation) was “Little or No” and the IC50 (CYP2C9; Diclofenac 4-hydroxylation, 30-min preincubation, read-out: Time-dependent inhibition IC50) was 23 µM. The inhibition at 49.5 µM (CYP2C9; Diclofenac 4-hydroxylation, 30-min preincubation, read-out: Time-dependent inhibition, maximum inhibition at 49.5 µM) was 52%, the inhibition at 49.5 µM (CYP2C9; Diclofenac 4-hydroxylation, zero-minute preincubation, read-out: Direct inhibition, maximum inhibition at 49.5 µM) was 58% and the IC50 (CYP2C9; human liver microsomes, Diclofenac 4-hydroxylation, zero-minute preincubation, read-out: Direct inhibition IC50) was 27 µM. For the same compound, the Ki (CYP2C9; human liver microsomes, direct inhibition, read-out: Ki, CYP2C9-catalyzed probe substrate reaction) was at least 11 µM, the IC50 (CYP2D6) was over 49.5 µM and the “Potential for time-dependent inhibition” value (CYP2D6; Dextromethorphan O-demethylation) was “Little or No”. For the same compound, the inhibition at 49.5 µM (CYP2D6; Dextromethorphan O-demethylation, 30-min preincubation, read-out: Time-dependent inhibition, maximum inhibition at 49.5 µM) was 24%, the inhibition at 49.5 µM (CYP2D6; Dextromethorphan O-demethylation, zero-minute preincubation, read-out: Direct inhibition, maximum inhibition at 49.5 µM) was 50% and the IC50 (CYP2D6; read-out: Time-dependent inhibition IC50, Dextromethorphan O-demethylation, 30-min preincubation) was over 49.5 µM. The IC50 (CYP2E1) was over 49.5 µM, the “Potential for time-dependent inhibition” value (CYP2E1; Chlorzoxazone 6-hydroxylation) was “Little or No” and the inhibition at 49.5 µM (CYP2E1; Chlorzoxazone 6-hydroxylation, 30-min preincubation, read-out: Time-dependent inhibition, maximum inhibition at 49.5 µM) was 17%. The inhibition at 49.5 µM (CYP2E1; Chlorzoxazone 6-hydroxylation, zero-minute preincubation, read-out: Direct inhibition, maximum inhibition at 49.5 µM) was 19%, the IC50 (CYP2E1; read-out: Time-dependent inhibition IC50, Chlorzoxazone 6-hydroxylation, 30-min preincubation) was over 49.5 µM and the “Induction of CYP1A1/2 activity” value (CYP1A1/2) was “less than 40 % of positive control”. For the same compound, the “Induction of CYP3A4/5 activity (in words)” value (CYP3A4/5; in vitro) was “did not induce”, the “Induction of CYP3A4/5 activity” value (CYP3A4/5; primary human hepatocyte cultures, enzyme activity quantification (testosterone 6β-hydroxylation)) was “less than 40 % of positive control” and the “Increase in CYP3A4 mRNA” value (CYP3A4 mRNA; human hepatocyte cultures, maximum (up to), concentration-dependent) was “up to 7 fold”. The “Effect on CYP3A4 mRNA (in words)” value (CYP3A4 mRNA; in vitro) was “increased CYP3A4 mRNA”, the “Inhibition of P-gp-mediated efflux transport of dabigatran etexilate (in words)” value (P-gp) was “weak inhibitor” and the “Geometric mean free Cmax” value [1] was 52.4 nM.
